According to patent US20220184147A1, “BACTERIAL ENZYMATIC CONVERSION OF ANTHRACYCLINE CHEMOTHERAPEUTICS TO REDUCE TOXICITY AND PROMOTE DIVERSITY AMONG THE INTESTINAL MICROBIOTA” (Northwestem University, priority 2019, published 2022):

Assays:
Clostridium innocuum = assay: Sensitivity of monoculture growth to Dox at various concentrations; assay type: cell-based; settings: C. innocuum
Text: (§1) The impacts of doxorubicin on a model community of gut bacteria was investigated in vitro in anaerobic batch culture. The synthetic community was composed of specific members predicted by genomic analysis to be sensitive to the therapeutic (i.e., Clostridium innocuum, Lactobacillus sp.), resistant via putative biotransformation (i.e., Escherichia coli, Klebsiella pneumoniae), or resistant via putative efflux (i.e., Enterococcus faecalis). Bacterial growth was monitored in monocultures by measuring OD600 and standard plate counts, and in mixed cultures by strain-targeted qPCR. Doxorubicin concentration was detected via absorbance assay.
(§2) The effects of Dox on gut-associated bacteria then were investigated in vitro in monoculture and in a synthetic community. […] Bacteria were identified and quantified after culture and treatment using qPCR.
(§3) (See FIGS. 4-8). […] (See FIGS. 4 and 5, respectively).
(§4) (See FIGS. 7 and 8, respectively).

Enterococcus faecalis [1] = assay: Bacterial transformation of Dox, spectrophotometric assay of Dox concentration in culture / spent media
Text: (§5) A spectrophotometric assay to measure the concentration of active, unmodified, non-transformed doxorubicin was adopted.
(§6) A spectrophotometric assay to measure the concentration of doxorubicin was adopted. […] Our spectrophotometric assays measure the concentration of active, unmodified, non-transformed doxorubicin (Dox) via absorption at λ480 versus concentration of Dox μM.

Lactobacillus [2] = assay: Growth of Dox-sensitive strain in 50% spent media of resistant strains; assay type: cell-based, Lactobacillus spp.
Method: (§7) We previously observed that a Dox concentration as low as 10 μM can inhibit the growth of C. innocuum and Lactobacillus. (See FIGS. 7 and 8, respectively).

C. innocuum = assay: as above; assay type: cell-based, Clostridium innocuum
Method: as §7

[3] = tested on: synthetic community of C. innocuum, E. coli, E. faecalis, and K. pneumoniae; assay: Mixed-batch culture of synthetic community treated with Dox in second generation; assay type: cell-based; settings: Dox 100 μM added in second generation
Method: We next performed a mixed-batch culture experiment. (See FIGS. 10A and 10B). We prepared a synthetic community by combining cultures of C. innocuum, E. coli, E. faecalis, and K. pneumoniae. We cultured the synthetic community and allowed community formation in a first generation. Subsequently, we added Dox at a concentration of 100 μM and monitored the growth of the members of the synthetic community after treatment/disturbance in a second generation. We then cultured the synthetic community though resiliency in a third generation.
(See FIGS. 10B, middle panel).

[4] = tested on: mixed-microbial communities of C. innocuum, Lactobacillus sp., E. faecalis, E. coli, and K. pneumoniae; assay: Mixed-microbial communities C1-C5 in continuous anaerobic batch culture exposed to Dox in generation 2; assay type: cell-based
Method: FIG. 11A, FIG. 11B, FIG. 11C, FIG. 11D, and FIG. 11E. […] C1 began with even content of model strains of C innocuum^S, Lactobacillus^S sp., E. faecalisR, E. coli^R*, and K. pneumoniae^R*. C2 included less E. faecalis^R. C3 included less E. coli^R* . C4 included less K. pneumoniae^R*, and C5 included less E. coli^R* and K. pneumoniae^R*. The bacterial communities were grown in continuous batch culture and exposed to different concentrations Dox in generation 2.
The impacts of doxorubicin concentration and microbial community membership (and associated function) on the reduction of bioactive drug and associated microbial community resiliency were investigated in vitro in continuous anaerobic batch culture. Optical density measurements coupled with 16S rRNA gene amplicon sequencing analysis were used to estimate relative bacterial growth and a spectrophotometric assay was used to measure doxorubicin concentration. […] C1 began with even content of model strains of C. innocuum^S, Lactobacillus^S sp., E. faecalis^R, E. coli^R*, and K. pneumoniae^R*. C2 included less E. faecalis^R. C3 included less E. coli^R*. C4 included less K. pneumoniae^R*, and C5 included less E. coli^R* and K. pneumoniae^R*. The bacterial communities were grown in continuous batch culture and exposed to different concentrations Dox in generation 2.
C1, C2, and C3, may have been enhanced in communities with greater bacterial diversity. (See FIGS. 11A, 11B, and 11C, and compare C1 to C2 and C3, at least for the medium concentration). […] (See FIG. 11D, C4). […] (See FIG. 11E, C5). […] (See FIGS. 11A, 11B, and 11C, C1, C2, and C3, generation 3). […] Thus, microbial community membership (and associated function) impacted the rate of doxorubicin transformation, which, in turn, may confer protective effects on drug-sensitive members in gut-microbial communities.

Escherichia coli [5] = assay: Bacterial transformation of Dox, spectrophotometric assay of Dox concentration in culture / spent media
Text: as §5, §6
(§8) We next tested the sensitivity or resistance of Escherichia coli, Klebsiella pneumonia, Enterococcus faecalis, Clostridium innocuum or Lactobacillus spp. to Dox at various concentrations. (See FIGS. 4-8). […] (See FIGS. 4 and 5, respectively).

Klebsiella pneumoniae [6] = assay: as above
Text: as §5, §6, §8

Lactobacillus [7] = assay: Sensitivity of monoculture growth to Dox at various concentrations; assay type: cell-based, Lactobacillus spp.
Text: as §1, §2, §3, §4

Escherichia coli [8] = assay: Sensitivity or resistance of monoculture growth to Dox; assay type: cell-based; settings: E. coli
Text: as §1, §2, §3

Klebsiella pneumoniae [9] = assay: as above; assay type: cell-based; settings: K. pneumoniae
Text: as §1, §2, §3

Enterococcus faecalis [10] = assay: as above; assay type: cell-based; settings: E. faecalis
Text: as §1, §2, §3

K. pneumoniae = assay: Modified resting cell assay with gentamicin; assay type: cell-based, Klebsiella pneumoniae; settings: 10 or 50 μm gentamicin, anaerobic, 37° C., 24 h, controls
Method: FIG. 12A and FIG. 12B. Background gentamicin in culture media “fixes” K. pneumoniae to retain its biotransformation function despite thwarting cell growth. FIG. 12A: K. pneumoniae were first grown anaerobically at 37° C. in media in the presence of doxorubicin for 24 h (i.e., so initial biotransformation took place). Cultures were centrifugated into pellets, which were washed with buffer solution and resuspended in new media containing 100 μm doxorubicin and 0, 10, or 50 μm gentamicin. Inoculum was transferred to positive controls (i.e., with doxorubicin and same gentamicin treatment) and negative controls (i.e., contained doxorubicin, but no gentamicin). All samples were incubated anaerobically at 37° C. for 24 h and bacterial growth and final doxorubicin concentration (i.e., barplot) were determined. […] The two tubes on the far right are control growth media and doxorubicin-containing growth media (i.e., red color intensity corresponds to doxorubicin concentration in solution).
In a modified resting cell assay, we have shown that the biotransformation function can be harnessed without dependency on cell division. (See FIGS. 12A and 12B). Thus, it may be possible to “fix” K. pneumoniae in a form that enzymatically transforms Dox without presenting risk for in vivo colonization/growth. […]

[11] = spent media of E. coli and K. pneumoniae, Dox 4.1±2.5 μM and 4.4±0.9
[12] = spent media of E. faecalis, Dox 48.4±0.8 μM

Molecule: COc1cccc2c1C(=O)c1c(O)c3c(c(O)c1C2=O)C[C@@](O)(C(=O)CO)C[C@@H]3O[C@H]1C[C@H](N)[C@H](O)[C@H](C)O1 [Dox, doxorubicin]
- Growth after 25 hours (Clostridium innocuum; Dox 100 μM): did not observe any growth
- Dox concentration at which delayed growth was observed (Clostridium innocuum; monoculture): ≤ 10 µM
- Sensitivity to Dox (Clostridium innocuum; monoculture): highly sensitive
- Change of Dox concentration in culture (Enterococcus faecalis [1]; E. faecalis culture, absorption at λ480): did not reduce the Dox concentration in culture
- Dox concentration in the 50% spent media (Enterococcus faecalis [1]; E. faecalis grown with initial 100 μM Dox): 48.4±0.8
- Growth in 50% spent media (Lactobacillus [2]; [11]): able to grow
- Growth in 50% spent media (Lactobacillus [2]; [12]): unable to grow
- Growth in 50% spent media (C. innocuum; [11]): able to grow
- Growth in 50% spent media (C. innocuum; [12]): unable to grow
- Growth of Dox-sensitive C. innocuum in synthetic community [3]: grew only following doxorubicin transformation
- Transformation of Dox by bacterial communities ([4]; communities containing E. coli and lacking K. pneumoniae (C4)): at a slower rate
- Transformation of doxorubicin by bacterial communities ([4]; communities containing E. coli or K. pneumoniae): rapid transformation
- Transformation of Dox by bacterial communities ([4]; communities without either K. pneumoniae or E. coli (C5)): not able to enzymatically transform Dox
- C. innocuum growth in mixed communities ([4]; generation 2, medium and high concentrations of doxorubicin): not detected in all cultures
- Change of Dox concentration in culture (Escherichia coli [5]; E. coli culture, absorption at λ480): reduced Dox concentration in culture
- Dox concentration in the 50% spent media (Escherichia coli [5]; E. coli grown with initial 250 μM Dox): 4.1 ± 2.5 µM
- Change of Dox concentration in culture (Klebsiella pneumoniae [6]; K. pneumoniae culture, absorption at λ480): reduced Dox concentration in culture
- Dox concentration in the 50% spent media (Klebsiella pneumoniae [6]; K. pneumoniae grown with initial 250 μM Dox): 4.4±0.9
- Growth after 25 hours (Lactobacillus [7]; Dox 100 μM): did not observe any growth
- Dox concentration at which delayed growth was observed (Lactobacillus [7]; monoculture): ≤ 10 µM
- Sensitivity to Dox (Lactobacillus [7]; monoculture): highly sensitive
- Resistance to Dox (Escherichia coli [8]): resistant
- Resistance to Dox (Klebsiella pneumoniae [9]): resistant
- Resistance to Dox (Enterococcus faecalis [10]): resistant to Dox

Molecule: gentamicin
- Effect on K. pneumoniae growth (K. pneumoniae): stalled K. pneumoniae growth
